{"source": "patent US20170305992A1", "about": "“NOVEL PEPTIDES AND COMBINATION OF PEPTIDES FOR USE IN IMMUNOTHERAPY AGAINST VARIOUS TUMORS” (IMMATICS BIOTECHNOLOGIES GMBH, priority 2015, published 2017)", "data": [{"tested_on": "CD8+ T cells", "assay": "In vitro T-cell priming assay with aAPCs loaded with peptide/MHC and anti-CD28, pMHC multimer readout (in vitro immunogenicity)", "type": "cell-based, human", "settings": "HLA-A*02 restricted peptides, Table 6B", "from_the_text": "(§1) In order to obtain information regarding the immunogenicity of the TUMAPs of the present invention, the inventors performed investigations using an in vitro T-cell priming assay based on repeated stimulations of CD8+ T cells with artificial antigen presenting cells (aAPCs) loaded with peptide/MHC complexes and anti-CD28 antibody.\n(§2) In order to perform in vitro stimulations by artificial antigen presenting cells loaded with peptide-MHC complex (pMHC) and anti-CD28 antibody, the inventors first isolated CD8+ T cells from fresh HLA-A*02 leukapheresis products via positive selection using CD8 microbeads (Miltenyi Biotec, Bergisch-Gladbach, Germany) of healthy donors obtained from the University clinics Mannheim, Germany, after informed consent. PBMCs and isolated CD8+ lymphocytes were incubated in T-cell medium (TCM) until use consisting of RPMI-Glutamax (Invitrogen, Karlsruhe, Germany) supplemented with 10% heat inactivated human AB serum (PAN-Biotech, Aidenbach, Germany), 100 U/ml Penicillin/100 μg/ml Streptomycin (Cambrex, Cologne, Germany), 1 mM sodium pyruvate (CC Pro, Oberdorla, Germany), 20 μg/ml Gentamycin (Cambrex). 2.5 ng/ml IL-7 (PromoCell, Heidelberg, Germany) and 10 U/ml IL-2 (Novartis Pharma, Nürnberg, Germany) were also added to the TCM at this step. Generation of pMHC/anti-CD28 coated beads, T-cell stimulations and readout was performed in a highly defined in vitro system using four different pMHC molecules per stimulation condition and 8 different pMHC molecules per readout condition.\n(§3) The purified co-stimulatory mouse IgG2a anti human CD28 Ab 9.3 (Jung et al., 1987) was chemically biotinylated using Sulfo-N-hydroxysuccinimidobiotin as recommended by the manufacturer (Perbio, Bonn, Germany). Beads used were 5.6 μm diameter streptavidin coated polystyrene particles (Bangs Laboratories, Ill., USA).\n(§4) pMHC used for positive and negative control stimulations were A*0201/MLA-001 (peptide […] (SEQ ID NO. 289) from modified Melan-A/MART-1) and A*0201/DDX5-001 ([…] from DDX5, SEQ ID NO. 290), respectively.\n(§5) 800.000 beads/200 μl were coated in 96-well plates in the presence of 4×12.5 ng different biotin-pMHC, washed and 600 ng biotin anti-CD28 were added subsequently in a volume of 200 μl. Stimulations were initiated in 96-well plates by co-incubating […] CD8+ T cells with 2×10^5 washed coated beads in 200 μl TCM supplemented with 5 ng/ml IL-12 (PromoCell) for 3 days at 37° C. Half of the medium was then exchanged by fresh TCM supplemented with 80 U/ml IL-2 and incubating was continued for 4 days at 37° C. This stimulation cycle was performed for a total of three times. For the pMHC multimer readout using 8 different pMHC molecules per condition, a two-dimensional combinatorial coding approach was used as previously described (Andersen et al., 2012) with minor modifications encompassing coupling to 5 different fluorochromes. Finally, multimeric analyses were performed by staining the cells with Live/dead near IR dye (Invitrogen, Karlsruhe, Germany), CD8-FITC antibody clone SK1 (BD, Heidelberg, Germany) and fluorescent pMHC multimers. For analysis, a BD LSRII SORP cytometer equipped with appropriate lasers and filters was used. Peptide specific cells were calculated as percentage of total CD8+ cells. Evaluation of multimeric analysis was done using the FlowJo software (Tree Star, Oreg., USA). In vitro priming of specific multimer+CD8+ lymphocytes was detected by comparing to negative control stimulations.\n(§6) Exemplary flow cytometry results after TUMAP-specific multimer staining for peptides of the invention are shown in FIG. 3 together with corresponding negative controls.", "values": [{"substance": "101 (SLLEVNEASSV; listed as Homo sapiens) [compound 101]", "Wells positive [%]": "+ (<20% = +)"}, {"substance": "35 (VIIKGLEEI; listed as Homo sapiens) [compound 35]", "Wells positive [%]": "+ (<20% = +)"}, {"substance": "89 (SLAETIFIV; listed as Homo sapiens) [compound 89]", "Wells positive [%]": "+ (<20% = +)"}, {"substance": "236 (KMSELQTYV; listed as Homo sapiens) [compound 236]", "Wells positive [%]": "+ (<20% = +)"}, {"substance": "246 (ALAGIVTNV; listed as Homo sapiens) [compound 246]", "Wells positive [%]": "+ (<20% = +)"}, {"substance": "77 (ALYGNVQQV; listed as Homo sapiens) [compound 77]", "Wells positive [%]": "+ (<20% = +)"}, {"substance": "92 (RLFEEVLGV; listed as Homo sapiens) [compound 92]", "Wells positive [%]": "++ (20% - 49% = ++)"}, {"substance": "251 (LLWGNLPEI; listed as Homo sapiens) [compound 251]", "Wells positive [%]": "++ (20% - 49% = ++)"}, {"substance": "29 (KMISAIPTL; listed as Homo sapiens) [compound 29]", "Wells positive [%]": "+ (<20% = +)"}, {"substance": "260 (ALNESLVEC; listed as Homo sapiens) [compound 260]", "Wells positive [%]": "+ (<20% = +)"}, {"substance": "233 (SLFESLEYL; listed as Homo sapiens) [compound 233]", "Wells positive [%]": "+ (<20% = +)"}, {"substance": "27 (GLLGKVTSV; listed as Homo sapiens) [compound 27]", "Wells positive [%]": "+ (<20% = +)"}, {"substance": "157 (ILQDGQFLV; listed as Homo sapiens) [compound 157]", "Wells positive [%]": "+ (<20% = +)"}, {"substance": "255 (FLMKNSDLYGA; listed as Homo sapiens) [compound 255]", "Wells positive [%]": "+ (<20% = +)"}, {"substance": "66 (AMFPDTIPRV; listed as Homo sapiens) [compound 66]", "Wells positive [%]": "+ (<20% = +)"}, {"substance": "4 (VLFGELPAL; listed as Homo sapiens) [compound 4]", "Wells positive [%]": "+ (<20% = +)"}, {"substance": "254 (ALGDKFLLRV; listed as Homo sapiens) [compound 254]", "Wells positive [%]": "+ (<20% = +)"}, {"substance": "9 (SLITGQDLLSV; listed as Homo sapiens) [compound 9]", "Wells positive [%]": "+ (<20% = +)"}, {"substance": "121 (ALYVQAPTV; listed as Homo sapiens) [compound 121]", "Wells positive [%]": "+ (<20% = +)"}, {"substance": "261 (GLAALAVHL; listed as Homo sapiens) [compound 261]", "Wells positive [%]": "++ (20% - 49% = ++)"}, {"substance": "48 (KISDFGLATV; listed as Homo sapiens) [compound 48]", "Wells positive [%]": "++ (20% - 49% = ++)"}, {"substance": "97 (KLFEKSTGL; listed as Homo sapiens) [compound 97]", "Wells positive [%]": "+ (<20% = +)"}, {"substance": "17 (GLLPSAESIKL; listed as Homo sapiens) [compound 17]", "Wells positive [%]": "+ (<20% = +)"}, {"substance": "263 (SIIEYLPTL; listed as Homo sapiens) [compound 263]", "Wells positive [%]": "+ (<20% = +)"}, {"substance": "253 (KLLAVIHEL; listed as Homo sapiens) [compound 253]", "Wells positive [%]": "++ (20% - 49% = ++)"}, {"substance": "11 (LLDPKTIFL; listed as Homo sapiens) [compound 11]", "Wells positive [%]": "++ (20% - 49% = ++)"}, {"substance": "50 (ILLSVLHQL; listed as Homo sapiens) [compound 50]", "Wells positive [%]": "+ (<20% = +)"}, {"substance": "248 (VLMQDSRLYL; listed as Homo sapiens) [compound 248]", "Wells positive [%]": "++ (20% - 49% = ++)"}, {"substance": "117 (TLLEGISRA; listed as Homo sapiens) [compound 117]", "Wells positive [%]": "++ (20% - 49% = ++)"}, {"substance": "275 (AVPPPPSSV; listed as Homo sapiens) [compound 275]", "Wells positive [%]": "++ (20% - 49% = ++)"}, {"substance": "14 (YTFSGDVQL; listed as Homo sapiens) [compound 14]", "Wells positive [%]": "+ (<20% = +)"}, {"substance": "234 (VLLNEILEQV; listed as Homo sapiens) [compound 234]", "Wells positive [%]": "++ (20% - 49% = ++)"}, {"substance": "267 (YLLDMPLWYL; listed as Homo sapiens) [compound 267]", "Wells positive [%]": "+ (<20% = +)"}, {"substance": "257 (KLIDHQGLYL; listed as Homo sapiens) [compound 257]", "Wells positive [%]": "+ (<20% = +)"}, {"substance": "7 (ALLQALMEL; listed as Homo sapiens) [compound 7]", "Wells positive [%]": "++ (20% - 49% = ++)"}, {"substance": "166 (LLGDSSFFL; listed as Homo sapiens) [compound 166]", "Wells positive [%]": "++ (20% - 49% = ++)"}, {"substance": "264 (TLHDQVHLL; listed as Homo sapiens) [compound 264]", "Wells positive [%]": "+ (<20% = +)"}, {"substance": "242 (KLQEEIPVL; listed as Homo sapiens) [compound 242]", "Wells positive [%]": "+ (<20% = +)"}, {"substance": "102 (GLYPVTLVGV; listed as Homo sapiens) [compound 102]", "Wells positive [%]": "+ (<20% = +)"}]}, {"tested_on": "CD8+ T cells", "assay": "In vitro T-cell priming assay with aAPCs loaded with peptide/MHC and anti-CD28, pMHC multimer readout (in vitro immunogenicity)", "type": "cell-based, human", "settings": "percentage of positive donors; HLA class I peptides, Table 6A", "from_the_text": "as §1, §2, §3, §4, §5, §6", "values": [{"substance": "287 (KIQEILTQV; listed as Homo sapiens) [compound 287]", "in vitro immunogenicity: donors": "+++ (50% - 69% = +++)"}, {"substance": "288 (SLYKGLLSV; listed as Homo sapiens) [compound 288]", "in vitro immunogenicity: donors": "++++ (> = 70% = ++++)"}]}, {"tested_on": "CD8+ T cells", "assay": "In vitro T-cell priming assay with aAPCs loaded with peptide/MHC and anti-CD28, pMHC multimer readout (in vitro immunogenicity)", "type": "cell-based, human", "settings": "percentage of positive wells; HLA class I peptides, Table 6A", "from_the_text": "as §1, §2, §3, §4, §5, §6", "values": [{"substance": "287 (KIQEILTQV; listed as Homo sapiens) [compound 287]", "in vitro immunogenicity: wells": "+ (<20% = +)"}, {"substance": "288 (SLYKGLLSV; listed as Homo sapiens) [compound 288]", "in vitro immunogenicity: wells": "++ (21% - 49% = ++)"}]}]}
